The values that follow come from PubChem BioAssay (NCI).

Among the test systems are BT-549 breast; HCT-116 colon; HCT-15 colon; IGROV1 ovarian; MDA-MB-435; SR leukemia; U251 CNS; UACC-257 melanoma; CCRF-CEM leukemia; SK-MEL-5 melanoma.
Experiment in all cases: NCI anticancer screen, dose series, 48 h

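Tested at 5 concentrations; 48 h exposure; 96-well plates; endpoints linearly interpolated, else capped at highest concentration. Here, GI50 denotes the concentration required for 50% inhibition of growth. TGI: concentration producing complete growth inhibition.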 A value given as a limit tells only on which side of the number the result lay.

In the case of `CCC(=O)Nc1ncnc2ncn(C(=O)CC)c12`, the TGI in the experiment with BT-549 breast, in the experiment with HCT-116 colon, in the experiment on HCT-15 colon, with IGROV1 ovarian, in the experiment on MDA-MB-435 and in the experiment with SR leukemia was over 100 µM in each case. The TGI in the experiment on U251 CNS and in the experiment with UACC-257 melanoma was over 100 µM throughout.

On to `COc1ccc(C(=O)c2cc(C)c(OC)c(C)c2)c(OC)c1N(C(=O)CCl)C(=O)CCl`, for which the GI50 in the experiment with BT-549 breast was 0.0554 µM; with CCRF-CEM leukemia, 0.166 µM; in the experiment on HCT-116 colon, 0.0638 µM; in the experiment with HCT-15 colon, 0.0537 µM; in the experiment on IGROV1 ovarian, 0.0738 µM; with SK-MEL-5 melanoma it was 0.0554 µM. Further, the results for the GI50 with SR leukemia, in the experiment on U251 CNS and in the experiment on UACC-257 melanoma were 0.045 µM, 0.0509 µM and 16.8 µM, respectively. Besides, the TGI with BT-549 breast is 1.43 µM; with CCRF-CEM leukemia, over 37.8 µM; in the experiment on HCT-116 colon it was 10.8 µM; in the experiment on HCT-15 colon, 14.2 µM; with IGROV1 ovarian, 3.83 µM; in the experiment with SK-MEL-5 melanoma, 1.96 µM. Moreover, the TGI was over 100 µM in the experiment on SR leukemia, 20.3 µM with U251 CNS and over 88.4 µM in the experiment with UACC-257 melanoma.

Take `N#CC(C(=O)O)C(c1c(Cl)cccc1Cl)C(C#N)C(=O)O` (configuration not stated): the TGI in the experiment with BT-549 breast, with HCT-116 colon, in the experiment with HCT-15 colon, in the experiment with IGROV1 ovarian, with MDA-MB-435 and in the experiment on SK-MEL-5 melanoma was over 100 µM in each case. Moreover, the TGI in the experiment on SR leukemia, in the experiment on U251 CNS and in the experiment on UACC-257 melanoma was over 100 µM throughout.

Consider `CC1(C)OC2COC(c3[nH]nc4c(=O)[nH]c(=O)[nH]c34)C2O1` (configuration not stated), for which the TGI in the experiment with BT-549 breast, with HCT-116 colon, in the experiment with HCT-15 colon, in the experiment with IGROV1 ovarian, in the experiment on MDA-MB-435 and in the experiment on SK-MEL-5 melanoma was over 100 µM throughout. The TGI in the experiment with SR leukemia, in the experiment on U251 CNS and in the experiment on UACC-257 melanoma was over 100 µM each time.

Regarding `COc1cccc(NC(=O)c2ccc(NC3=C(Cl)C(=O)N(Cc4ccccc4)C3=O)cc2)c1`, the GI50 in the experiment with BT-549 breast was 13.8 µM; in the experiment with CCRF-CEM leukemia, 1.67 µM; with HCT-116 colon, 15 µM; with HCT-15 colon, 1.4 µM; with IGROV1 ovarian, 13.3 µM; in the experiment on MDA-MB-435, 10.6 µM. Further, the figures for the GI50 with SK-MEL-5 melanoma, in the experiment on U251 CNS and with UACC-257 melanoma were 14 µM, 7.12 µM and 16.2 µM, respectively. Moreover, the TGI in the experiment on BT-549 breast came to 33.8 µM; with CCRF-CEM leukemia, 4.35 µM; with HCT-116 colon, 28.3 µM; with HCT-15 colon, 2.71 µM; with IGROV1 ovarian, 28.7 µM; in the experiment on MDA-MB-435, 41.4 µM. Besides, the TGI amounted to 26.9 µM in the experiment on SK-MEL-5 melanoma, 19.9 µM with U251 CNS and 38.5 µM in the experiment with UACC-257 melanoma.

Take `NC(Cc1c[nH]c2cc(F)ccc12)C(=O)O` (configuration not stated): the GI50 is 841 µM in the experiment on BT-549 breast; 1240 µM in the experiment on CCRF-CEM leukemia; 1030 µM in the experiment on HCT-116 colon; 888 µM with HCT-15 colon; 840 µM with MDA-MB-435; 557 µM with SK-MEL-5 melanoma. Besides, the GI50 with SR leukemia was 1040 µM; in the experiment with U251 CNS it was 872 µM; in the experiment with UACC-257 melanoma, 1490 µM. Moreover, the TGI in the experiment with BT-549 breast is over 2500 µM; in the experiment on CCRF-CEM leukemia, over 2500 µM; in the experiment on HCT-116 colon, over 2500 µM; with HCT-15 colon, over 2500 µM; in the experiment with MDA-MB-435 it was over 2500 µM; in the experiment with SK-MEL-5 melanoma it was 1140 µM. For the same compound, the TGI with SR leukemia, in the experiment with U251 CNS and in the experiment with UACC-257 melanoma was over 2500 µM throughout.

Take `COc1ccc2c(c1)c(-c1ccc(-c3cn(C)c4ccc(OC)cc34)o1)cn2C`: the GI50 was 5.11 µM in the experiment on BT-549 breast; 6.46 µM in the experiment with CCRF-CEM leukemia; 88 µM in the experiment with HCT-116 colon; 4.22 µM in the experiment on HCT-15 colon; 29.6 µM in the experiment with IGROV1 ovarian; 32.9 µM in the experiment with MDA-MB-435. The GI50 is 10.4 µM in the experiment on SK-MEL-5 melanoma, 3.66 µM in the experiment with U251 CNS and 27 µM in the experiment on UACC-257 melanoma. Further, the TGI is 18.2 µM in the experiment with BT-549 breast; 78.4 µM in the experiment on CCRF-CEM leukemia; over 100 µM with HCT-116 colon; 29.7 µM in the experiment on HCT-15 colon; over 100 µM in the experiment with IGROV1 ovarian; over 100 µM with MDA-MB-435. The figures for the TGI in the experiment on SK-MEL-5 melanoma, with U251 CNS and in the experiment on UACC-257 melanoma were 22.8 µM, 13.4 µM and over 100 µM, respectively.

Turning to `COc1cc2c(cc1OC)-c1ncc3cc(OC)c(OC)c(OC)c3c1C2`, the GI50 was 2.94 µM in the experiment with BT-549 breast; 31.8 µM in the experiment with HCT-116 colon; 35.4 µM with HCT-15 colon; 33.5 µM in the experiment on IGROV1 ovarian; 16.2 µM with MDA-MB-435; 1.68 µM with SK-MEL-5 melanoma. Moreover, the GI50 in the experiment with SR leukemia was 11 µM; in the experiment on U251 CNS it was 36.8 µM; in the experiment with UACC-257 melanoma it was 16.4 µM. Further, the TGI is 7.56 µM in the experiment on BT-549 breast; over 100 µM with HCT-116 colon; over 100 µM in the experiment with HCT-15 colon; over 100 µM in the experiment on IGROV1 ovarian; 42.6 µM in the experiment with MDA-MB-435; 3.05 µM in the experiment with SK-MEL-5 melanoma. Further, the TGI is 39.8 µM with SR leukemia, over 100 µM with U251 CNS and 52.6 µM in the experiment on UACC-257 melanoma.

As for `O=C1c2ccccc2-c2c1c1ccc([N+](=O)[O-])cc1c(=O)n2CCCn1ccnc1`, the GI50 in the experiment on BT-549 breast is 0.0359 µM; in the experiment on HCT-116 colon, 0.0763 µM; in the experiment with HCT-15 colon, 1.06 µM; in the experiment on IGROV1 ovarian, 0.696 µM; in the experiment on MDA-MB-435 it was 1.55 µM; in the experiment with SK-MEL-5 melanoma it was under 0.019 µM. Moreover, the GI50 in the experiment with U251 CNS is 0.157 µM; in the experiment with UACC-257 melanoma it was 0.379 µM. Also, the TGI was determined as 0.96 µM with BT-549 breast; 0.785 µM in the experiment on CCRF-CEM leukemia; 0.652 µM with HCT-116 colon; 3.15 µM in the experiment on HCT-15 colon; 2.71 µM with IGROV1 ovarian; 5.98 µM with MDA-MB-435. Besides, the values for the TGI with SK-MEL-5 melanoma, in the experiment with U251 CNS and in the experiment with UACC-257 melanoma were 0.104 µM, 0.69 µM and 1.83 µM, respectively.

As for `COc1ccc(C[C@H]2NC[C@H](O)[C@H]2OC(C)=O)cc1`, the TGI was determined as 1.91 µM in the experiment on BT-549 breast; 0.863 µM in the experiment with CCRF-CEM leukemia; 0.146 µM with HCT-116 colon; 0.153 µM with IGROV1 ovarian; 0.193 µM in the experiment on MDA-MB-435; 0.0585 µM with SK-MEL-5 melanoma. In addition, the TGI with U251 CNS turned out to be 2.02 µM; in the experiment on UACC-257 melanoma it was 2.89 µM. Moreover, the GI50 with SK-MEL-5 melanoma was 0.0176 µM.
